Patent US12076334B2, “Pharmaceutical composition comprising adenosine derivative for prevention and treatment of retinal disease or optic nerve disease” (FUTURE MEDICINE CO., LTD., priority 2017, dated 2024)
Like-named read-outs stand apart in the source and are kept apart here.

What was measured:
[1] = tested on: photoreceptor cells derived from the mouse retina; experiment: Mitochondrial membrane potential analysis (JC-1, flow cytometer); type: cell-based; details: for R2 (cell distribution, JC-1 flow cytometry): normal control 13.78 ± 1.12; for R1 (cell distribution, JC-1 flow cytometry): normal control 86.22 ± 1.12
Protocol: The prepared solution was stored at −20° C. until use. In addition, 10 mg of CCCP was dissolved in 1 mL of DMSO to prepare a 50 mM CCCP solution. The prepared solution was stored at −20° C. until use. Treatment of the test material was performed after diluting with a serum-free cell culture medium in 1:1000 (v/v). The control group was treated after diluting with DMSO in 1:1000 v/v).
Intracellular mitochondrial cell membrane potential was analyzed using JC-1 reagent. […] Thereafter, […] of JC-1 was treated and incubated for 30 minutes.

[2] = tested on: photoreceptor cells derived from the mouse retina; experiment: Cell protective effect against glutamic acid-induced cell death (cell viability); type: cell-based; details: n=6, read-out: EC50 (50% effective concentration), protection from glutamic acid-induced apoptosis
Protocol: (§1) Compound A to be used as a test material was prepared by dissolving in DMSO. The prepared solution was stored at −20° C. until use. In addition, 10 mg of CCCP was dissolved in 1 mL of DMSO to prepare a 50 mM CCCP solution. The prepared solution was stored at −20° C. until use. Treatment of the test material was performed after diluting with a serum-free cell culture medium in 1:1000 (v/v). The control group was treated after diluting with DMSO in 1:1000 v/v).
This experimental result means that Compound A has a protective effect against glutamic acid-induced apoptosis.

[3] = tested on: photoreceptor cells derived from mouse retina; experiment: RT-PCR mRNA expression of angiogenesis- and inflammation-related factors in HMGB-1-treated photoreceptor cells; type: cell-based; details: increased by HMGB-1, 6 h
Protocol: (§2) Compound A to be used as a test material was prepared by dissolving in DMSO. The prepared solution was stored at −20° C. until use. Treatment of the test material was treated after diluting to 1:1000 (v/v) in a serum-free cell culture medium. The control group was treated after diluting to 1:1000 (v/v) in DMSO.
In order to confirm the efficacy of the test material in reactions related to angiogenesis and inflammatory response of photoreceptor cells derived from mouse retina, cells cultured for 6 hours under various conditions were treated with TRIzol solution to isolate total RNA in cells. After the cDNA was synthesized using specific primers for the target gene (Table 2) and reverse transcriptase in the isolated total RNA, expression of the related factors was confirmed. mRNA expression levels were analyzed by expressing as relative values using ImageJ software.

[4] = tested on: photoreceptor cells derived from mouse retina; experiment: ELISA of intracellular inflammatory cytokines (TNFα, IL-1β, IL-6) in HMGB-1-treated photoreceptor cells; type: cell-based; details: increased by HMGB-1, 24 h
Protocol: as §2
In order to confirm the efficacy of the test material in reactions related to angiogenesis and inflammatory response of photoreceptor cells derived from mouse retina, cells cultured for 24 hours under various conditions were recovered and intracellular proteins were extracted using a PRO-PREP protein extraction kit. Quantification of the extracted protein was measured using a BCA protein assay kit. Quantitative analysis of inflammatory cytokines (TNFα, IL-1β, IL-6) present in the cells was analyzed with each ELISA kit.

[5] = tested on: caspase 8; experiment: Caspase 8 activity assay (Caspase-Glo 8); type: cell-based, mouse; details: pretreatment 1 hour, then 5 mM glutamic acid 24 hours
Protocol: (§3) The activity of intracellular caspase 8 was analyzed by Caspase-Glo 8 assay system. […] After adding the kit solution in the same amount as the cell culture medium and reacting for 1 hour, the relative activity was analyzed by measuring the amount of generated luminescence through a microplate reader.

[6] = tested on: caspase 3/7; experiment: Caspase 3/7 activity assay (Caspase-Glo 3/7); type: cell-based, mouse; details: pretreatment 1 hour, then 5 mM glutamic acid 24 hours
Protocol: as §3, with “3/7” for “8”

[7] = tested on: mouse retina-derived photoreceptor cell; experiment: Immunoblot of apoptosis-related proteins in glutamic acid-treated photoreceptor cells; type: cell-based
Protocol: as §1
In order to confirm the efficacy of a test material for angiogenesis-related response and inflammatory response of a mouse retina-derived photoreceptor cell, cells cultured for 24 hours under various conditions were collected and intracellular protein was extracted by using a PRO-PREP protein extraction kit. Quantification of the extracted protein was measured using a BCA protein assay kit. 40 μg of protein was separated by 10% SDS-PAGE and then attached to a PVDF membrane. The protein-attached membrane was reacted with Tris-buffered saline with 0.1% Tween-20 (TBST) containing 5% skim milk for 30 minutes, followed by reactions of primary and secondary antibodies in sequence. The protein expression level was confirmed using photograph by a Fusion Fximage acquisition system. The protein expression level was analyzed by expressing as a relative value using ImageJ.

[8] = tested on: photoreceptor cells derived from the mouse retina; experiment: TUNEL assay and DAPI staining of glutamic acid-induced apoptosis; type: cell-based; details: pretreated 1 μM 1 hour, then 5 mM glutamic acid 8 hours; vs glutamic acid only
Protocol: as §1
Quantitative analysis of apoptosis cells was analyzed by DeadEnd™ Fluorometric TUNEL System. […] Cells were washed twice with PBS and fixed with 10% formalin for 15 minutes. Fixed cells were exposed to 0.1% Triton X-100 for 10 minutes. After the cells were reacted with dUTP containing fluorescence, the cut DNA portion was stained and then fixed on a slide with a mounting solution containing DAPI. The stained cells were observed through a fluorescence microscope.

[9] = tested on: photoreceptor cells derived from mouse retina; experiment: Immunoblot of angiogenesis- and inflammation-related proteins in HMGB-1-treated photoreceptor cells; type: cell-based; details: 24 h
Protocol: as §2
In order to confirm the efficacy of the test material in reactions related to angiogenesis and inflammatory response of photoreceptor cells derived from mouse retina, cells cultured for 24 hours under various conditions were recovered and intracellular proteins were extracted using a PRO-PREP protein extraction kit. Quantification of the extracted protein was measured using a BCA protein assay kit. 40 μg of protein was separated by 10% SDS-PAGE and then attached to the PVDF membrane. The protein-attached membrane was reacted with TBST (Tris-buffered saline with 0.1% Tween-20) containing 5% skim milk for 30 minutes and the primary antibody and secondary antibody were reacted in sequence. The protein expression level was confirmed by photographing using a Fusion Fximage acquisition system. The protein expression level was analyzed by relative values using ImageJ.
In relation to high mobility group box 1 (HMGB-1), it has been reported that the expression of HMGB-1 was increased when pressure was applied to photoreceptor cells derived from the mouse retina, and when HMGB-1 was treated to photoreceptor cells, angiogenesis-related factors and inflammatory responses increase (Bohm M R et al., Lab Invest, 96, 409-427, 2016). Accordingly, in the present disclosure, the efficacy of adenosine derivatives against angiogenic response and inflammatory response according to damage to photoreceptor cells was verified based on the above reference.

[10] = tested on: photoreceptor cells derived from mouse retina; experiment: ELISA of VEGF in medium of HMGB-1-treated photoreceptor cells; type: cell-based; details: increased by HMGB-1; Compound A 0.1 μM or more; 24 h
Protocol: as §2
In order to confirm the efficacy of the test material in reactions related to angiogenesis of photoreceptor cells derived from mouse retina, the medium of cells cultured for 24 hours under various conditions was collected after centrifugation. Quantitative analysis of VEGF present in the medium was analyzed with the Mouse VEGF Quantikine ELISA Kit.

[11] = Cytotoxicity of glutamic acid (cell viability, cell proliferation assay kit); type: cell-based; details: mouse; 0-9 mM, 24 hours incubation
[12] = cells treated with the agent only (glutamic acid 5 mM 6 hours, or CCCP)
[13] = changed by glutamic acid, pretreated with Compound A
[14] = increased by glutamic acid, pretreated with Compound A
[15] = pretreatment of Compound A, glutamic acid-treated cells
[16] = pretreated with 1 μM Compound A 1 hour, then 5 mM glutamic acid 6 hours
[17] = HMGB-1 (5 μg/mL), Compound A 2 μM
[18] = HMGB-1 (5 μg/mL), Compound A at least 0.1 μM
[19] = HMGB-1 (5 μg/mL), Compound A at least 0.5 μM
[20] = increased by HMGB-1 (5 μg/mL), Compound A at least 0.5 μM

N#CC(C#N)=NNc1cccc(Cl)c1 [CCCP]
R2 (cell distribution, JC-1 flow cytometry) [1, 12]: 90.58 ± 1.48
R1 (cell distribution, JC-1 flow cytometry) [1, 12]: 9.42 ± 1.48

O[C@@H]1[C@H](O)CS[C@H]1n1cnc2c(NCc3cccc(Cl)c3)nc(Cl)nc21 [Compound A, (2R,3R,4S)-2-(2-chloro-6-(3-chlorobenzylamino)-9H-purin-9-yl)tetrahydrothiophene-3,4-diol]
EC50 ([2]; pretreatment for 30 min): 0.31 ± 0.08 µM
EC50 ([2]; pretreatment for 1 hour): 0.35 ± 0.06 µM
COX2 mRNA expression ([3]; Compound A 0.1 μM or more): significantly inhibited
IL-6 mRNA expression ([3]; Compound A 0.1 μM or more): significantly inhibited
VEGF mRNA expression ([3]; Compound A 0.1 μM or more): significant decrease
VEGFR1 mRNA expression ([3]; Compound A 0.1 μM or more): significant decrease
MMP9 mRNA expression ([3]; Compound A 0.5 μM or more): significantly reduced
TNFα mRNA expression ([3]; Compound A 0.5 μM or more): significantly reduced
VEGFR2 mRNA expression ([3]; Compound A 0.5 μM or more): significantly decreased
ICAM1 mRNA expression ([3]; Compound A 1 μM or more): significantly reduced
MMP2 mRNA expression ([3]; Compound A 1 μM or more): significantly reduced
VCAM1 mRNA expression ([3]; Compound A 1 μM or more): significantly reduced
amount of TNFα in cells (ELISA) ([4]; Compound A 0.1 μM or higher): significantly reduced
amount of IL-1β in cells (ELISA) ([4]; Compound A 1 μM or higher): significantly reduced
amount of IL-6 in cells (ELISA) ([4]; Compound A 1 μM or higher): significantly reduced
activity of caspase 8 [5]: inhibited in a concentration-dependent manner
activity of caspase 3/7 [6]: inhibited in a concentration-dependent manner
BID protein expression [7, 13]: recovered to the same expression level as the normal group
Bad protein expression [7, 13]: recovered to the same expression level as the normal group
Bcl2 protein expression [7, 13]: recovered to the same expression level as the normal group
pBad protein expression [7, 13]: recovered to the same expression level as the normal group
pBcl2 protein expression [7, 13]: recovered to the same expression level as the normal group
RIP protein expression ([7]; decreased by glutamic acid, pretreated with Compound A): increased again in a concentration-dependent manner
caspase 8 protein expression [7, 14]: significantly decreased
cleaved caspase 3 protein expression [7, 14]: significantly decreased
cleaved caspase 9 protein expression [7, 14]: significantly decreased
expression of AIF in the nucleus [7, 15]: decreased significantly
expression of cytochrome c in the cytoplasm [7, 15]: decreased significantly
number of TUNEL-positive nuclei [8]: significantly reduced
R2 (cell distribution, JC-1 flow cytometry) [1, 16]: 28.30 ± 1.60
R1 (cell distribution, JC-1 flow cytometry) [1, 16]: 71.70 ± 1.60
ANG1 protein expression [9, 17]: significantly increased
ICAM1 protein expression [9, 17]: significantly decreased
VCAM1 protein expression [9, 17]: significantly decreased
ANG2 protein expression [9, 18]: significantly decreased
MMP9 protein expression [9, 18]: significantly decreased
VEGFR1 protein expression [9, 18]: significantly decreased
COX2 protein expression [9, 19]: significantly reduced
MMP2 protein expression [9, 19]: significantly reduced
VEGF protein expression [9, 20]: significantly reduced
VEGFR2 protein expression [9, 20]: significantly reduced
amount of VEGF (ELISA, medium) [10]: significantly decreased

N[C@@H](CCC(=O)O)C(=O)O [glutamic acid]
R2 (cell distribution, JC-1 flow cytometry) [1, 12]: 63.87 ± 10.42
R1 (cell distribution, JC-1 flow cytometry) [1, 12]: 36.13 ± 10.42
IC50 at 24 h [11]: 5100 ± 500 µM
